Laboratory results as given in patent US11590139B2, “Substituted aminopurine compounds, compositions thereof, and methods of treatment therewith” (Signal Pharmaceuticals, LLC, priority 2014, dated 2023).

tested on: Lox-IMVI melanoma cell line; experiment: Lox-IMVI anti-proliferative assay (growth inhibition, Cell Titer-Glo); format: cell-based, human; conditions: Homo sapiens; IC50 activity level in the cell-based Lox-IMVI anti-proliferative assay; read-out: Activity
Method in brief: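 Viability read by ATP luminescence (Cell Titer-Glo) at t0 and after 72 h at 37 °C, 5% CO2, with normalisation to DMSO-treated cells. Compound tested at 0.5 nM–10 μM in 3-fold, 10-point series (0.2% DMSO final) on Lox-IMVI in RPMI+10% FBS; IC50 by 4-parameter sigmoidal fit.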

Compound | IC50 [nM]
NC(=O)[C@H]1CC[C@@H](n2c(Nc3cccc(F)c3Cl)nc3cnc(NC4CCOCC4)nc32)CC1 [Example 61, (1s,4s)-4-(8-(2-chloro-3-fluorophenylamino)-2-(tetrahydro-2H-pyran-4-ylamino)-9H-purin-9-yl)cyclohexanecarboxamide] | > 1000
Cc1cc(Cl)cc(F)c1Nc1nc2cnc(NC3CCOCC3)nc2n1[C@H]1CC[C@@H](C(N)=O)CC1 [Example 75, (1s,4s)-4-(8-(4-chloro-2-fluoro-6-methylphenylamino)-2-(tetrahydro-2H-pyran-4-ylamino)-9H-purin-9-yl)cyclohexanecarboxamide] | > 1000
NC(=O)[C@H]1CC[C@@H](n2c(Nc3c(F)ccc(F)c3F)nc3cnc(NC4CC(F)(F)C4)nc32)CC1 [Example 233, (1s,4s)-4-(2-(3,3-difluorocyclobutylamino)-8-(2,3,6-trifluorophenylamino)-9H-purin-9-yl)cyclohexanecarboxamide] | 500 to 1000
NC(=O)[C@H]1CC[C@@H](n2c(Nc3cccc(Cl)c3F)nc3cnc(NC4CCC(F)(F)CC4)nc32)CC1 [Example 237, (1s,4s)-4-(8-(3-chloro-2-fluorophenylamino)-2-(4,4-difluorocyclohexylamino)-9H-purin-9-yl)cyclohexanecarboxamide] | > 1000
CC(C)Nc1ncc2nc(Nc3c(F)cc(F)cc3Cl)n([C@H]3CC[C@@H](C(N)=O)CC3)c2n1 [Example 125, (1s,4s)-4-(8-(2-chloro-4,6-difluorophenylamino)-2-(isopropylamino)-9H-purin-9-yl)cyclohexanecarboxamide] | 500 to 1000
NC(=O)[C@H]1CC[C@@H](n2c(Nc3cc(Cl)ccc3F)nc3cnc(N[C@H]4COC[C@@H]4O)nc32)CC1 [Example 320, (1R,4s)-4-(8-(5-chloro-2-fluorophenylamino)-2-((3S,4R)-4-hydroxytetrahydrofuran-3-ylamino)-9H-purin-9-yl)cyclohexanecarboxamide] | > 1000
NC(=O)[C@H]1CC[C@@H](n2c(Nc3c(F)cc(Cl)cc3Cl)nc3cnc(NC4CC5(COC5)C4)nc32)CC1 [Example 195, (1s,4s)-4-(2-(2-oxaspiro[3.3]heptan-6-ylamino)-8-(2,4-dichloro-6-fluorophenylamino)-9H-purin-9-yl)cyclohexanecarboxamide] | 250 to 500
Cc1cc(Cl)cc(Cl)c1Nc1nc2cnc(NC3CCOCC3)nc2n1[C@H]1CC[C@@H](C(N)=O)CC1 [Example 103, (1s,4s)-4-(8-(2,4-dichloro-6-methylphenylamino)-2-(tetrahydro-2H-pyran-4-ylamino)-9H-purin-9-yl)cyclohexanecarboxamide] | > 1000
CC1(C)CC[C@@H](Nc2ncc3nc(Nc4c(F)cc(Cl)cc4F)n([C@H]4CC[C@@H](C(N)=O)CC4)c3n2)C[C@H]1O [Example 386, (1S,4s)-4-(8-(4-chloro-2,6-difluorophenylamino)-2-((1R,3R)-3-hydroxy-4,4-dimethylcyclohexylamino)-9H-purin-9-yl)cyclohexanecarboxamide] | > 1000
CC(C)(C)OC(=O)N1CCC[C@@H](Nc2ncc3nc(Nc4c(F)cc(F)cc4F)n([C@H]4CC[C@@H](C(N)=O)CC4)c3n2)C1 [Example 158, (R)-tert-butyl 3-(9-((1s,4S)-4-carbamoylcyclohexyl)-8-(2,4,6-trifluorophenylamino)-9H-purin-2-ylamino)piperidine-1-carboxylate] | > 1000
C[C@@H]1CC[C@@H](Nc2ncc3nc(Nc4c(F)ccc(Cl)c4F)n([C@H]4CC[C@@H](C(N)=O)CC4)c3n2)C[C@H]1O [Example 358, (1S,4s)-4-(8-(3-chloro-2,6-difluorophenylamino)-2-((1R,3R,4R)-3-hydroxy-4-methylcyclohexylamino)-9H-purin-9-yl)cyclohexanecarboxamide] | > 1000
NC(=O)[C@H]1CC[C@@H](n2c(Nc3c(Cl)cccc3Cl)nc3cnc(NC4CC5(COC5)C4)nc32)CC1 [Example 174, (1s,4s)-4-(2-(2-oxaspiro[3.3]heptan-6-ylamino)-8-(2,6-dichlorophenylamino)-9H-purin-9-yl)cyclohexanecarboxamide] | > 1000

same assay, conditions: Homo sapiens; Lox-IMVI anti-proliferative assay, IC50 activity level; read-out: Activity

Compound | IC50 [nM]
CC[C@@H](CO)Nc1ncc2nc(Nc3c(F)cc(C#N)cc3F)n([C@H]3CC[C@@H](C(N)=O)CC3)c2n1 [Example 402, (1R,4s)-4-(8-(4-cyano-2,6-difluorophenylamino)-2-((S)-1-hydroxybutan-2-ylamino)-9H-purin-9-yl)cyclohexanecarboxamide] | > 1000
NC(=O)[C@H]1CC[C@@H](n2c(Nc3c(Cl)cc(OC(F)(F)F)cc3Cl)nc3cnc(NC4CCCC4)nc32)CC1 [Example 597, (1s,4s)-4-(2-(cyclopentylamino)-8-(2,6-dichloro-4-(trifluoromethoxy)phenylamino)-9H-purin-9-yl)cyclohexanecarboxamide] | > 1000
C[C@@H]1COCC[C@H]1Nc1ncc2nc(Nc3c(F)cc(Cl)cc3Cl)n([C@H]3CC[C@@H](C(N)=O)CC3)c2n1 [Example 503, (1S,4s)-4-(8-(2,4-dichloro-6-fluorophenylamino)-2-((3S,4R)-3-methyltetrahydro-2H-pyran-4-ylamino)-9H-purin-9-yl)cyclohexanecarboxamide] | < 250
NC(=O)[C@H]1CC[C@@H](n2c(Nc3c(F)cc(Cl)cc3F)nc3cnc(N[C@@H]4CCC(F)(F)C4)nc32)CC1 [Example 588, (1S,4s)-4-(8-(4-chloro-2,6-difluorophenylamino)-2-((R)-3,3-difluorocyclopentylamino)-9H-purin-9-yl)cyclohexanecarboxamide] | < 250
N#Cc1cc(F)c(Nc2nc3cnc(N[C@@H]4CCOC4)nc3n2[C@H]2CC[C@@H](C(N)=O)CC2)c(F)c1 [Example 529, (1S,4s)-4-(8-(4-cyano-2,6-difluorophenylamino)-2-((R)-tetrahydrofuran-3-ylamino)-9H-purin-9-yl)cyclohexanecarboxamide] | > 1000
NC(=O)[C@H]1CC[C@@H](n2c(Nc3c(Cl)cc(C(F)(F)F)cc3Cl)nc3cnc(N[C@@H]4CCOC4)nc32)CC1 [Example 523, (1S,4s)-4-(8-(2,6-dichloro-4-(trifluoromethyl)phenylamino)-2-((R)-tetrahydrofuran-3-ylamino)-9H-purin-9-yl)cyclohexanecarboxamide] | > 1000
C[C@@H]1COCC[C@@H]1Nc1ncc2nc(Nc3c(F)cc(Cl)cc3F)n([C@H]3CC[C@@H](C(N)=O)CC3)c2n1 [Example 509, (1R,4s)-4-(8-(4-chloro-2,6-difluorophenylamino)-2-((3S,4S)-3-methyltetrahydro-2H-pyran-4-ylamino)-9H-purin-9-yl)cyclohexanecarboxamide] | 500 to 1000

same assay, conditions: Homo sapiens; Lox-IMVI anti-proliferative assay, cell-based; read-out: Activity (IC50 activity level)

Compound | IC50 [nM]
N#Cc1cc(F)c(Nc2nc3cnc(N[C@@H]4CCOC[C@H]4F)nc3n2[C@H]2CC[C@@H](C(N)=O)CC2)c(F)c1 [Example 801, (1S,4s)-4-(8-(4-cyano-2,6-difluorophenylamino)-2-((3S,4R)-3-fluorotetrahydro-2H-pyran-4-ylamino)-9H-purin-9-yl)cyclohexanecarboxamide] | < 250

same assay, conditions: Homo sapiens; Lox-IMVI melanoma cell line, anti-proliferative assay; read-out: Activity (IC50 activity level)

Compound | IC50 [nM]
C[C@]1(C(N)=O)CC[C@@H](n2c(Nc3c(F)cc(C#N)cc3Cl)nc3cnc(N[C@@H]4CCC[C@@H](O)C4)nc32)CC1 [Example 623, (1S,4s)-4-(8-(2-chloro-4-cyano-6-fluorophenylamino)-2-((1R,3R)-3-hydroxycyclohexylamino)-9H-purin-9-yl)-1-methylcyclohexanecarboxamide] | 250 to 500
N#Cc1cc(Cl)c(Nc2nc3cnc(N[C@@H]4CCC[C@@H](O)C4)nc3n2[C@H]2CC[C@@H](C(N)=O)CC2)c(Cl)c1 [Example 684, (1S,4s)-4-(8-(2,6-dichloro-4-cyanophenylamino)-2-((1R,3R)-3-hydroxycyclohexylamino)-9H-purin-9-yl)cyclohexanecarboxamide] | 500 to 1000
N#Cc1cc(F)c(Nc2nc3cnc(N[C@H]4CCOC[C@H]4F)nc3n2[C@H]2CC[C@@H](C(N)=O)CC2)c(F)c1 [Example 669, (1R,4s)-4-(8-(4-cyano-2,6-difluorophenylamino)-2-((3S,4S)-3-fluorotetrahydro-2H-pyran-4-ylamino)-9H-purin-9-yl)cyclohexanecarboxamide] | 500 to 1000
C[C@]1(C(N)=O)CC[C@@H](n2c(Nc3c(F)cc(Cl)cc3Cl)nc3cnc(NC4CC(F)(F)C4)nc32)CC1 [Example 651, (1s,4s)-4-(8-(2,4-dichloro-6-fluorophenylamino)-2-(3,3-difluorocyclobutylamino)-9H-purin-9-yl)-1-methylcyclohexanecarboxamide] | < 250
C[C@]1(C(N)=O)CC[C@@H](n2c(Nc3c(F)cc(F)cc3F)nc3cnc(N[C@@H]4CCC[C@@H](O)C4)nc32)CC1 [Example 617, (1S,4s)-4-(2-((1R,3R)-3-hydroxycyclohexylamino)-8-(2,4,6-trifluorophenylamino)-9H-purin-9-yl)-1-methylcyclohexanecarboxamide] | > 1000
C[C@]1(C(N)=O)CC[C@@H](n2c(Nc3c(F)cc(F)cc3F)nc3cnc(N[C@@H]4CC[C@@H](O)C4)nc32)CC1 [Example 634, (1S,4s)-4-(2-((1R,3R)-3-hydroxycyclopentylamino)-8-(2,4,6-trifluorophenylamino)-9H-purin-9-yl)-1-methylcyclohexanecarboxamide] | 500 to 1000
N#Cc1cc(Cl)c(Nc2nc3cnc(NC[C@@H]4CCCC[C@@H]4O)nc3n2[C@H]2CC[C@@H](C(N)=O)CC2)c(Cl)c1 [Example 659, (1R,4s)-4-(8-(2,6-dichloro-4-cyanophenylamino)-2-(((1S,2S)-2-hydroxycyclohexyl)methylamino)-9H-purin-9-yl)cyclohexanecarboxamide] | > 1000
Cc1ccc(S(=O)(=O)N2CCC[C@@H](Nc3ncc4nc(Nc5c(F)cc(F)cc5Cl)n([C@H]5CC[C@@H](C(N)=O)CC5)c4n3)C2)cc1 [Example 787, (1S,4s)-4-(8-(2-chloro-4,6-difluorophenylamino)-2-((R)-1-tosylpiperidin-3-ylamino)-9H-purin-9-yl)cyclohexanecarboxamide] | > 1000
